{"source": "ChEMBL document CHEMBL3217737", "about": "“Discovery of a highly selective FLT3 kinase inhibitor from phenotypic cell viability profiling” (Medchemcomm, 2013)", "key": {"[1]": {"target": "Aurora kinase A (Homo sapiens) (UniProt O14965)", "experiment": "Inhibition of Aurora A (unknown origin) at 10 uM assessed as residual enzyme activity"}, "[2]": {"target": "ALK tyrosine kinase receptor (Homo sapiens) (UniProt Q9UM73)", "experiment": "Inhibition of ALK (unknown origin) at 10 uM assessed as residual enzyme activity"}, "[3]": {"target": "Serine/threonine-protein kinase A-Raf (Homo sapiens) (UniProt P10398)", "experiment": "Inhibition of ARAF (unknown origin) at 10 uM assessed as residual enzyme activity"}, "[4]": {"test_system": "MV4-11", "experiment": "Cytotoxicity against human MV4-11 cells assessed as cell viability at 1 uM after 24 hrs by WST1 assay", "type": "functional", "conditions": "MV4-11, 24 h, read-out: Activity"}, "[5]": {"target": "Ribosomal protein S6 kinase beta-1 (Homo sapiens) (UniProt P23443)", "experiment": "Inhibition of p70S6K (unknown origin) at 10 uM assessed as residual enzyme activity"}, "[6]": {"target": "Fibroblast growth factor receptor 1 (Homo sapiens) (UniProt P11362)", "sequence (P11362 22-822 limits assumed)": "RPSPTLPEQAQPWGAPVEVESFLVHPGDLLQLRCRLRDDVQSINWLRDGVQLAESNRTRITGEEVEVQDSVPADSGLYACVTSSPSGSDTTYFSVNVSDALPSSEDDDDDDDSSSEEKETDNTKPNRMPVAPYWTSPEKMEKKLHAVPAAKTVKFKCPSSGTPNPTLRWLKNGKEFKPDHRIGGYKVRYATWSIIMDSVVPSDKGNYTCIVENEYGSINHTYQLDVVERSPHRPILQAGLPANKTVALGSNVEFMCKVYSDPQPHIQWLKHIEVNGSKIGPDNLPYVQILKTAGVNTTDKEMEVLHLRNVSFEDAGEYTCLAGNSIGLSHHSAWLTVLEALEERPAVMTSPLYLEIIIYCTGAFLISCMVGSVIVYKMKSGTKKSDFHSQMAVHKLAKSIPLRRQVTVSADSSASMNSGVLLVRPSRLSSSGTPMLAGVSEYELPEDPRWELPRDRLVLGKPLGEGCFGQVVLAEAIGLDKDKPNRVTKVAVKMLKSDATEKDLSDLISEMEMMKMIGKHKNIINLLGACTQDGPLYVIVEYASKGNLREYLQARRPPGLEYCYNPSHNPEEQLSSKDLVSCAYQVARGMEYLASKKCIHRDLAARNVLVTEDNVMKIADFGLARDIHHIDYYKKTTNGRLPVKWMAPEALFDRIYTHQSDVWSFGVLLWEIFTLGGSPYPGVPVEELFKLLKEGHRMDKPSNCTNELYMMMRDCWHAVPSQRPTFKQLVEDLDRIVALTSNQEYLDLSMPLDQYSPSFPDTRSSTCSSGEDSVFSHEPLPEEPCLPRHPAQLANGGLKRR", "experiment": "Inhibition of FGFR1 (unknown origin) at 10 uM assessed as residual enzyme activity"}, "[7]": {"test_system": "MV4-11", "experiment": "Cytotoxicity against human MV4-11 cells assessed as cell growth inhibition after 24 hrs by WST1 assay", "type": "functional, cell-based"}, "[8]": {"target": "Receptor-type tyrosine-protein kinase FLT3 (Homo sapiens, UniProt P36888)", "sequence (P36888 whole entry)": "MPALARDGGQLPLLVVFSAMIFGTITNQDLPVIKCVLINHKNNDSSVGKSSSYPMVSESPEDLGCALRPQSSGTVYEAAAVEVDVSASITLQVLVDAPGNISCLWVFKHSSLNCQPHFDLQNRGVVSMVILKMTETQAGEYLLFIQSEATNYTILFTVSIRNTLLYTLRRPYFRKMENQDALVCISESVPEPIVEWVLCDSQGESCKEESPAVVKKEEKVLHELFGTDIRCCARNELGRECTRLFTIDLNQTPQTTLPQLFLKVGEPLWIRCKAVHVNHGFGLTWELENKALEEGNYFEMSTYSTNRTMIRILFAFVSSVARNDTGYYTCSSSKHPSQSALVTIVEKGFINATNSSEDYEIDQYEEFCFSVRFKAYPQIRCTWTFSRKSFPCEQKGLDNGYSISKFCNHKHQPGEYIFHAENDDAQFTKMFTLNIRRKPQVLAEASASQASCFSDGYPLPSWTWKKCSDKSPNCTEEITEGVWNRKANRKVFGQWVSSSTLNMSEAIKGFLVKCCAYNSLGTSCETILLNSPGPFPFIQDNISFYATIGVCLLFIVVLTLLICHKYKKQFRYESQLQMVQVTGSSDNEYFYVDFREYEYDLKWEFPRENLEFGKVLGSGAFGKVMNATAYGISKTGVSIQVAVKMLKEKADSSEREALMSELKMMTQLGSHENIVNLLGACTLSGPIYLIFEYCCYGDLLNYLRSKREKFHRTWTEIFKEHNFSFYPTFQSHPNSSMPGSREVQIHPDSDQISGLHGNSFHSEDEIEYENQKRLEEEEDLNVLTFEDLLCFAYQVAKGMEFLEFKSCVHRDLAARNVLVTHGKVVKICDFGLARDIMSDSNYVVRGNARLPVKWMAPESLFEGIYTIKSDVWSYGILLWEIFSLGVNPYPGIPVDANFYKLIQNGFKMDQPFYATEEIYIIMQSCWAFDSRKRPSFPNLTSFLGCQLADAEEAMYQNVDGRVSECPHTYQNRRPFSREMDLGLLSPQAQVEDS", "experiment": "Inhibition of FLT3 (unknown origin) by kinase hot spot assay"}, "[9]": {"experiment": "Cytotoxicity against mouse NIH/3T3 cells assessed as cell viability at 1 uM after 24 hrs by WST1 assay", "type": "cell-based, NIH3T3", "conditions": "read-out: Activity"}, "[10]": {"species": "Homo sapiens", "experiment": "Inhibition of PKA (unknown origin) at 10 uM assessed as residual enzyme activity"}, "[11]": {"target": "Platelet-derived growth factor receptor beta (Homo sapiens) (UniProt P09619)", "experiment": "Inhibition of PDGFRbeta (unknown origin) at 10 uM assessed as residual enzyme activity"}, "[12]": {"target": "Tyrosine-protein kinase Lyn (Homo sapiens) (UniProt P07948)", "experiment": "Inhibition of LYN (unknown origin) at 10 uM assessed as residual enzyme activity"}, "[13]": {"test_system": "HL-60", "experiment": "Inhibition of ERK phosphorylation in human HL60 cells at 0.1 to 10 uM after 12 hrs by Western blot method", "type": "cell-based"}, "[14]": {"target": "Protein kinase C alpha type (Homo sapiens) (UniProt P17252)", "experiment": "Inhibition of PKCalpha (unknown origin) at 10 uM assessed as residual enzyme activity"}, "[15]": {"test_system": "MDA-MB-231", "experiment": "Cytotoxicity against human MDA-MB-231 cells assessed as cell viability at 1 uM after 24 hrs by WST1 assay", "type": "functional", "conditions": "MDA-MB-231, 24 h, read-out: Activity"}, "[16]": {"target": "Vascular endothelial growth factor receptor 2 (Homo sapiens) (UniProt P35968)", "experiment": "Inhibition of VEGFR2 (unknown origin) at 10 uM assessed as residual enzyme activity"}, "[17]": {"target": "Tyrosine-protein kinase ABL1 (Homo sapiens) (UniProt P00519)", "experiment": "Inhibition of ABL1 (unknown origin) at 10 uM assessed as residual enzyme activity"}, "[18]": {"target": "Mitogen-activated protein kinase 3 (Homo sapiens) (UniProt P27361)", "experiment": "Inhibition of ERK1 (unknown origin) at 10 uM assessed as residual enzyme activity"}, "[19]": {"target": "Insulin receptor (Homo sapiens) (UniProt P06213)", "experiment": "Inhibition of IR (unknown origin) at 10 uM assessed as residual enzyme activity"}, "[20]": {"target": "Mitogen-activated protein kinase 14 (Homo sapiens) (UniProt Q16539)", "sequence (Q16539 whole entry)": "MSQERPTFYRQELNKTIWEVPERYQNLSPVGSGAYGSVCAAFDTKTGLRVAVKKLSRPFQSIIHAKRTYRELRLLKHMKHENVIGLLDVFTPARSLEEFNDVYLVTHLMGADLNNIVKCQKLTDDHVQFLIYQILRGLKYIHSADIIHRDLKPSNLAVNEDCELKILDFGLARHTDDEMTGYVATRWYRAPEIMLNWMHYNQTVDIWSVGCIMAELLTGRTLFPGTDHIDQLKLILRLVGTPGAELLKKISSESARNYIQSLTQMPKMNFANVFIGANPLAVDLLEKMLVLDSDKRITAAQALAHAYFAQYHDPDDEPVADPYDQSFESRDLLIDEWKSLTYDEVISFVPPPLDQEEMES", "experiment": "Inhibition of P38alpha (unknown origin) at 10 uM assessed as residual enzyme activity"}, "[21]": {"target": "Vascular endothelial growth factor receptor 3 (Homo sapiens) (UniProt P35916)", "experiment": "Inhibition of VEGFR3 (unknown origin) at 10 uM assessed as residual enzyme activity"}, "[22]": {"target": "Proto-oncogene tyrosine-protein kinase receptor Ret (Homo sapiens) (UniProt P07949)", "experiment": "Inhibition of RET (unknown origin) at 10 uM assessed as residual enzyme activity"}, "[23]": {"target": "Epidermal growth factor receptor (Homo sapiens) (UniProt P00533)", "experiment": "Inhibition of EGFR (unknown origin) at 10 uM assessed as residual enzyme activity"}, "[24]": {"test_system": "HL-60", "experiment": "Cytotoxicity against human HL60 cells assessed as cell growth inhibition after 24 hrs by WST1 assay", "type": "functional, cell-based"}, "[25]": {"experiment": "Cytotoxicity against rat L6 cells assessed as cell viability at 1 uM after 24 hrs by WST1 assay", "type": "cell-based", "conditions": "read-out: Activity"}, "[26]": {"target": "CDK1/Cyclin A (Homo sapiens) (UniProt P06493+P20248)", "sequence (P06493 whole entry, looked up)": "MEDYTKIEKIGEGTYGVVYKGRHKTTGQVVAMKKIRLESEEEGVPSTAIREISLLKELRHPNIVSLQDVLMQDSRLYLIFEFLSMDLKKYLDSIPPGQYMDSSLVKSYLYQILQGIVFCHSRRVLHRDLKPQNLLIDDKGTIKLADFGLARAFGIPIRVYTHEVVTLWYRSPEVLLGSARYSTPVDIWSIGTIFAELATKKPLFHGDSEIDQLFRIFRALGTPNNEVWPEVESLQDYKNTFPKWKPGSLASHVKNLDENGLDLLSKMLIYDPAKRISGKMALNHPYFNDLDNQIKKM", "sequence (P20248 whole entry, looked up)": "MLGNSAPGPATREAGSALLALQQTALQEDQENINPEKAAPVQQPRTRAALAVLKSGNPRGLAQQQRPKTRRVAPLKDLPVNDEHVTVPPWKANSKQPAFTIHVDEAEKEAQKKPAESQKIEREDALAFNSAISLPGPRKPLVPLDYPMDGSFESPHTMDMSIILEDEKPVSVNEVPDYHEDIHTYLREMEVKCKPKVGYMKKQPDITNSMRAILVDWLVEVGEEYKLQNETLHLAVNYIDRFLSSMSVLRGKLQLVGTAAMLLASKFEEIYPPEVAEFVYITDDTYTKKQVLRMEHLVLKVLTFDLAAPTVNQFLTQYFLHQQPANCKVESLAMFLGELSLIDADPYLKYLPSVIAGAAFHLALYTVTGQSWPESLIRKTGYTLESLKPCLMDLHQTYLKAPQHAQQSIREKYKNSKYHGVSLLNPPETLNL", "experiment": "Inhibition of CDK1/Cyclin A (unknown origin) at 10 uM assessed as residual enzyme activity", "type": "protein-complex assay"}, "[27]": {"target": "Vascular endothelial growth factor receptor 1 (Homo sapiens) (UniProt P17948)", "sequence (P17948 whole entry)": "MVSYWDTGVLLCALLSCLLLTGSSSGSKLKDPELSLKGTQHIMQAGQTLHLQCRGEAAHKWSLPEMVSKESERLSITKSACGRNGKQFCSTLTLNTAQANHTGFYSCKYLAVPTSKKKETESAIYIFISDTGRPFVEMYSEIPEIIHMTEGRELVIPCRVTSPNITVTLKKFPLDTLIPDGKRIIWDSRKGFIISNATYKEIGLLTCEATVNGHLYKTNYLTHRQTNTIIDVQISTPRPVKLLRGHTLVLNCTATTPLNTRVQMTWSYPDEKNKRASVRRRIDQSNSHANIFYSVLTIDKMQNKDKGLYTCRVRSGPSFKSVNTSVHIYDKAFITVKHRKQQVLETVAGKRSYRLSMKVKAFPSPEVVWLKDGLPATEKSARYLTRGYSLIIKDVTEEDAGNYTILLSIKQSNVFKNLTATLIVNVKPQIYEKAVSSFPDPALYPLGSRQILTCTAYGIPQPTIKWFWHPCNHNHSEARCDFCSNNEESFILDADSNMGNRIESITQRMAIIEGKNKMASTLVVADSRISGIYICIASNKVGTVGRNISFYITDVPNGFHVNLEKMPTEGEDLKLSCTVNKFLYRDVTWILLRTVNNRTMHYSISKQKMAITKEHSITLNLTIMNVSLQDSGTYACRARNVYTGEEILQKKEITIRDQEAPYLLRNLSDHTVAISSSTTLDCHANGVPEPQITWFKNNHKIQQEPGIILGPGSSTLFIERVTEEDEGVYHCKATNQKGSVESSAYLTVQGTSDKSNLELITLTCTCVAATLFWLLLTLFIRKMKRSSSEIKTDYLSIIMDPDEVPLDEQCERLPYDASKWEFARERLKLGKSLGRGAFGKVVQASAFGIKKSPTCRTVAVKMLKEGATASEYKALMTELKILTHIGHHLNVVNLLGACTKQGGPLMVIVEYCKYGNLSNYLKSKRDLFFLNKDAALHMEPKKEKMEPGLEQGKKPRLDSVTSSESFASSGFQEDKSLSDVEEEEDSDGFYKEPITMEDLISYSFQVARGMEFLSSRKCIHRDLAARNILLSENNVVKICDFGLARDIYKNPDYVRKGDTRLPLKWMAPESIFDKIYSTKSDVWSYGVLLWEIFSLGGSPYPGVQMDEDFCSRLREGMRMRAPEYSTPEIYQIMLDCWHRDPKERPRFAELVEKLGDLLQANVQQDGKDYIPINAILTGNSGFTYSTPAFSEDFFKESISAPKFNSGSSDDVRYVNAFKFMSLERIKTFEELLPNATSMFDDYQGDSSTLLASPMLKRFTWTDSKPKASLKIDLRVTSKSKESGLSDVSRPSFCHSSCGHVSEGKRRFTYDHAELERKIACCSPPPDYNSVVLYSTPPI", "experiment": "Inhibition of VEGFR1 (unknown origin) at 10 uM assessed as residual enzyme activity"}, "[28]": {"target": "Hepatocyte growth factor receptor (Homo sapiens) (UniProt P08581)", "experiment": "Inhibition of c-Met (unknown origin) at 10 uM assessed as residual enzyme activity"}, "[29]": {"test_system": "MV4-11", "experiment": "Induction of apoptosis in human MV4-11 cells assessed as caspase 3 cleavage at 0.1 to 10 uM after 12 hrs by Western blot method", "type": "functional, cell-based"}, "[30]": {"target": "RAC-alpha serine/threonine-protein kinase (Homo sapiens) (UniProt P31749)", "experiment": "Inhibition of AKT1 (unknown origin) at 10 uM assessed as residual enzyme activity"}, "[31]": {"target": "Dual specificity mitogen-activated protein kinase kinase 1 (Homo sapiens) (UniProt Q02750)", "experiment": "Inhibition of MEK1 (unknown origin) at 10 uM assessed as residual enzyme activity"}, "[32]": {"target": "Serine/threonine-protein kinase PAK 1 (Homo sapiens) (UniProt Q13153)", "sequence (Q13153 whole entry)": "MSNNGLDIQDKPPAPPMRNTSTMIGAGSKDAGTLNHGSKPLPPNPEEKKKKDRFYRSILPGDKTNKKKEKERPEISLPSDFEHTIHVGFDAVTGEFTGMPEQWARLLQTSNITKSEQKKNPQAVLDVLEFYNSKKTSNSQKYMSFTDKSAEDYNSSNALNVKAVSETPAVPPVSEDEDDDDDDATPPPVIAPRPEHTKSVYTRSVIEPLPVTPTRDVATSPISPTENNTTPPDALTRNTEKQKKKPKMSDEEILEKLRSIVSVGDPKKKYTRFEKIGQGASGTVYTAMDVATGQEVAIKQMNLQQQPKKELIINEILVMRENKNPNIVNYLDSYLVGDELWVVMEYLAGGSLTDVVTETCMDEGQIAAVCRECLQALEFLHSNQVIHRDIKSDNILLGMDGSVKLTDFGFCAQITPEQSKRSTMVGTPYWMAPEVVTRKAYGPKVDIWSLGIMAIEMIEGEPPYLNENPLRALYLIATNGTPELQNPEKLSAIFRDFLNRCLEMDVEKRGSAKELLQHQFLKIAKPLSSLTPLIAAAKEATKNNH", "experiment": "Inhibition of PAK1 (unknown origin) at 10 uM assessed as residual enzyme activity"}, "[33]": {"test_system": "RAF proto-oncogene serine/threonine-protein kinase", "experiment": "Inhibition of Raf1 (unknown origin) at 10 uM assessed as residual enzyme activity", "conditions": "Homo sapiens"}, "[34]": {"target": "Receptor-type tyrosine-protein kinase FLT3 (Homo sapiens) (UniProt P36888)", "sequence (P36888 whole entry)": "as the sequence (P36888 whole entry) above", "experiment": "Inhibition of FLT3 in human MV4-11 cells assessed as reduction in ERK phosphorylation after 12 hrs by Western blot method", "type": "cell-based"}, "[35]": {"test_system": "MV4-11", "experiment": "Induction of apoptosis in human MV4-11 cells assessed as increase in cleaved PARP level at 0.1 to 10 uM after 12 hrs by Western blot method", "type": "functional, cell-based"}, "[36]": {"target": "Mitogen-activated protein kinase 1 (Homo sapiens) (UniProt P28482)", "experiment": "Inhibition of ERK2 (unknown origin) at 10 uM assessed as residual enzyme activity"}, "[37]": {"target": "Receptor-type tyrosine-protein kinase FLT3 (Homo sapiens) (UniProt P36888)", "experiment": "Inhibition of FLT3 phosphorylation in human MV4-11 cells after 4 hrs by Western blot method", "type": "cell-based"}, "[38]": {"target": "Serine/threonine-protein kinase STK11 (Homo sapiens) (UniProt Q15831)", "experiment": "Inhibition of LKB1 (unknown origin) at 10 uM assessed as residual enzyme activity"}, "[39]": {"target": "Receptor-type tyrosine-protein kinase FLT3 (Homo sapiens) (UniProt P36888)", "experiment": "Inhibition of FLT3 (unknown origin) at 10 uM assessed as residual enzyme activity"}, "[40]": {"target": "Receptor-type tyrosine-protein kinase FLT3 (Homo sapiens) (UniProt P36888)", "experiment": "Inhibition of FLT3 in human MV4-11 cells assessed as reduction in STAT5 phosphorylation after 12 hrs by Western blot method", "type": "cell-based"}}, "note": "The source made the active and inactive calls. No cut-off for these calls is given here.", "data": [{"smiles": "COc1ccc(-c2n[nH]c3ncc(-c4ccc(Cl)cc4N)cc23)cc1", "values": [{"measurement": "Activity", "setting": "[1]", "result": 87.7, "unit": "%"}, {"measurement": "Activity", "setting": "[2]", "result": 96.5, "unit": "%"}, {"measurement": "Activity", "setting": "[3]", "result": 77, "unit": "%"}, {"measurement": "viability at 1 µM", "setting": "[4]", "result": 30, "unit": "%"}, {"measurement": "Activity", "setting": "[5]", "result": 94.1, "unit": "%"}, {"measurement": "Activity", "setting": "[6]", "result": 90.1, "unit": "%"}, {"measurement": "growth inhibition (GI)", "setting": "[7]", "result": "Dose-dependent effect"}, {"measurement": "IC50", "setting": "[7]; MV4-11, 24 h", "result": 592, "unit": "nM"}, {"measurement": "IC50", "setting": "[8]", "result": 1300, "unit": "nM"}, {"measurement": "viability at 24 h, 1 µM", "setting": "[9]", "result": 106, "unit": "%"}, {"measurement": "Activity", "setting": "[10]", "result": 93, "unit": "%"}, {"measurement": "Activity", "setting": "[11]", "result": 96.3, "unit": "%"}, {"measurement": "Activity", "setting": "[12]", "result": 86.6, "unit": "%"}, {"measurement": "inhibition", "setting": "[13]", "result": "inactive"}, {"measurement": "Activity", "setting": "[14]", "result": 84.5, "unit": "%"}, {"measurement": "viability at 1 µM", "setting": "[15]", "result": 84, "unit": "%"}, {"measurement": "Activity", "setting": "[16]", "result": 98.6, "unit": "%"}, {"measurement": "Activity", "setting": "[17]", "result": 88.9, "unit": "%"}, {"measurement": "Activity", "setting": "[18]", "result": 95.4, "unit": "%"}, {"measurement": "Activity", "setting": "[19]", "result": 95, "unit": "%"}, {"measurement": "Activity", "setting": "[20]", "result": 110, "unit": "%"}, {"measurement": "Activity", "setting": "[21]", "result": 101, "unit": "%"}, {"measurement": "Activity", "setting": "[22]", "result": 83.3, "unit": "%"}, {"measurement": "Activity", "setting": "[23]", "result": 91.2, "unit": "%"}, {"measurement": "growth inhibition (GI)", "setting": "[24]", "result": "inactive"}, {"measurement": "viability at 24 h, 1 µM", "setting": "[25]", "result": 107, "unit": "%"}, {"measurement": "Activity", "setting": "[26]", "result": 97.4, "unit": "%"}, {"measurement": "Activity", "setting": "[27]", "result": 90, "unit": "%"}, {"measurement": "Activity", "setting": "[28]", "result": 118, "unit": "%"}, {"measurement": "Activity", "setting": "[29]", "result": "Active"}, {"measurement": "Activity", "setting": "[30]", "result": 93.6, "unit": "%"}, {"measurement": "Activity", "setting": "[31]", "result": 102, "unit": "%"}, {"measurement": "Activity", "setting": "[32]", "result": 98.9, "unit": "%"}, {"measurement": "Activity", "setting": "[33]", "result": 94.9, "unit": "%"}, {"measurement": "inhibition", "setting": "[34]", "result": "Dose-dependent effect"}, {"measurement": "Activity", "setting": "[35]", "result": "Dose-dependent effect"}, {"measurement": "Activity", "setting": "[36]", "result": 94, "unit": "%"}, {"measurement": "inhibition", "setting": "[37]", "result": "Active"}, {"measurement": "Activity", "setting": "[38]", "result": 101, "unit": "%"}, {"measurement": "Activity", "setting": "[39]", "result": 9.5, "unit": "%"}, {"measurement": "inhibition", "setting": "[40]", "result": "Dose-dependent effect"}]}]}
